Target: T1, Human MrgprX2 (Homo sapiens, UniProt Q96LB1)
T1 construct: expressed in transfected cells
T1 sequence (Q96LB1 1-330): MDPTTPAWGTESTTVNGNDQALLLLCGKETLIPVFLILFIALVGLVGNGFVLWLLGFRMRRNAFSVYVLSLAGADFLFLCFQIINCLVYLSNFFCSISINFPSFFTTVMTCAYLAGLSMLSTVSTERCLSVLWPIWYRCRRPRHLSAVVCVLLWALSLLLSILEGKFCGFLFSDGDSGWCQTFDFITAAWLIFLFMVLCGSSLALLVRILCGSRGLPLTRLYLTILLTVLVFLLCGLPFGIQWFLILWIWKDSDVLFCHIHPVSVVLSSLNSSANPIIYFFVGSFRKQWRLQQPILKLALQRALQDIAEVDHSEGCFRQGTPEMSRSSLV
Assay: Human MrgprX2 antagonist FLIPR intracellular calcium mobilization assay
Format: cell-based
Details: antagonist activity, recombinant hMrgpMRGPRX2 expressing cells, read-out: Human MrgprX2 Antagonist pIC50 (converted)
From the text: Potent and selective hMrgpMRGPRX2 compounds have been generated from compounds identified during a high throughput screening (HTS) campaign and followed up with cycles of structure activity based medicinal chemistry efforts. These compounds were characterized in recombinant hMrgpMRGPRX2 expressing cells for their antagonist activity and the potency was confirmed in the human mast cell line LAD-2, where the target is endogenously expressed. The assays used to determine potencies are functional read-out looking at intracellular calcium mobilization using the FLIPR™ technology. In these FLIPR assays, we test the identified compounds using recombinant cellular systems expressing mouse MrgprB2, mouse MrgprA1, gerbil MrgpMRGPRX2 orthologue, Chinese hamster MrgpMRGPRX2 orthologue and cynomolgus monkey MrgpMRGPRX2 orthologue, respectively for orthologue activity.

In order of rising IC50:
1. CC(C)C(=O)Nc1ncc(Cc2cc(F)cc(F)c2)s1 [Compound E041]  2 nM
2. C[C@]1(C(=O)Nc2ncc(Oc3cccc(F)c3)s2)CCOC1 (single isomer, unassigned) [Compound E084, N-[5-(3-fluorophenoxy)thiazol-2-yl]-3-methyl-tetrahydrofuran-3-carboxamide]  3.16 nM
3. C[C@@]1(C(=O)Nc2ncc(Cc3cc(F)cc(F)c3)s2)CCOC1 (single isomer, unassigned) [Compound E052, N-[5-[(3,5-difluorophenyl)methyl]thiazol-2-yl]-3-methyl-tetrahydrofuran-3-carboxamide]  3.98 nM
4. C[C@@]1(C(=O)Nc2ncc(Oc3cccc(F)c3)s2)CCOC1 (single isomer, unassigned) [Compound E083, N-[5-(3-fluorophenoxy)thiazol-2-yl]-3-methyl-tetrahydrofuran-3-carboxamide]  3.98 nM
5. C[C@]1(C(=O)Nc2ncc(Cc3cc(F)cc(F)c3)s2)CCOC1 (single isomer, unassigned) [Compound E053, N-[5-[(3,5-difluorophenyl)methyl]thiazol-2-yl]-3-methyl-tetrahydrofuran-3-carboxamide]  7.94 nM
6. CC(C)C(=O)Nc1ncc(Cc2ccc(F)c(F)c2)s1 [Compound E043]  7.94 nM
7. CC1(C(=O)Nc2ncc(Cc3cc(F)cc(F)c3)s2)CCOCC1 [Compound E044]  15.8 nM
8. CC(C)(C(=O)Nc1ncc(Cc2ccccc2F)s1)N1CCOCC1 [Compound E003]  39.8 nM
9. CC(C)C(=O)Nc1ncc(Cc2ccc(F)cc2F)s1 [Compound E042]  39.8 nM
10. C[C@@]1(C(=O)Nc2ncc(Cc3cccc(Cl)c3)s2)CCOC1 (single isomer, unassigned) [Compound E050, N-[5-[(3-chlorophenyl)methyl]thiazol-2-yl]-3-methyl-tetrahydrofuran-3-carboxamide]  63.1 nM
11. CC1(C(=O)Nc2ncc(Cc3cccc(Cl)c3)s2)CCOC1 (stereo not drawn) [Compound E033, N-[5-[(3-chlorophenyl)methyl]thiazol-2-yl]-3-methyl-tetrahydrofuran-3-carboxamide]  79.4 nM
12. C[C@]1(C(=O)Nc2ncc(Cc3cccc(Cl)c3)s2)CCOC1 (single isomer, unassigned) [Compound E051, N-[5-[(3-chlorophenyl)methyl]thiazol-2-yl]-3-methyl-tetrahydrofuran-3-carboxamide]  100 nM
13. CC1(C(=O)Nc2ncc(Cc3cccc(F)c3)s2)CCOCC1 [Compound E007]  100 nM
14. O=C(Nc1ncc(Cc2cccc(F)c2)s1)C1(C(F)(F)F)CC1 [Compound E027]  100 nM
15. C[C@@]1(C(=O)Nc2ncc(Cc3cccc(F)c3)s2)CCOC1 (single isomer, unassigned) [Compound E048, N-[5-[(3-fluorophenyl)methyl]thiazol-2-yl]-3-methyl-tetrahydrofuran-3-carboxamide]  126 nM
16. CC(C)(C(=O)Nc1ncc(Cc2ccc(F)cc2)s1)N1CCOCC1 [Compound E006]  126 nM
17. CC1(C(=O)Nc2ncc(Cc3cccc(F)c3)s2)CCOC1 (stereo not drawn) [Compound E015, N-[5-[(3-fluorophenyl)methyl]thiazol-2-yl]-3-methyl-tetrahydrofuran-3-carboxamide]  126 nM
18. CC1(C(=O)Nc2ncc(Oc3ccccc3)s2)CCOCC1 [Compound E020]  126 nM
19. CC1(C(=O)Nc2ncc(Cc3cccc(Cl)c3)s2)CCOCC1 [Compound E023]  126 nM
20. CC(C)(C#N)C(=O)Nc1ncc(Cc2cccc(Cl)c2)s1 [Compound E034]  158 nM
21. C[C@]1(C(=O)Nc2ncc(Cc3cccc(F)c3)s2)CCOC1 (single isomer, unassigned) [Compound E049, N-[5-[(3-fluorophenyl)methyl]thiazol-2-yl]-3-methyl-tetrahydrofuran-3-carboxamide]  200 nM
22. CC(O)(C(=O)Nc1ncc(Cc2cccc(F)c2)s1)C(F)(F)F (stereo not drawn) [Compound E025]  200 nM
23. COC(C)(C)C(=O)Nc1ncc(Cc2ccccc2F)s1 [Compound E019]  251 nM
24. CC(C)(F)C(=O)Nc1ncc(Cc2ccccc2F)s1 [Compound E021]  251 nM
25. CC(C)(C)OC(=O)N1CCC[C@]1(C)C(=O)Nc1ncc(Cc2cccc(F)c2)s1 [Compound E037, tert-butyl (2R)-2-[[5-[(3-fluorophenyl)methyl]thiazol-2-yl]carbamoyl]-2-methyl-pyrrolidine-1-carboxylate]  251 nM
26. CC(C(=O)Nc1ncc(Cc2ccccc2F)s1)N1CCOCC1 (stereo not drawn) [Compound E009]  316 nM
27. CC(C)(C)OC(=O)N1CCC(C)(C(=O)Nc2ncc(Cc3ccccc3F)s2)CC1 [Compound E018]  316 nM
28. CC1(C(=O)Nc2ncc(Cc3cccc(Cl)c3)s2)COC1 [Compound E036]  316 nM
29. CC1(C(=O)Nc2ncc(Cc3ccc(F)cc3)s2)CCOCC1 [Compound E001, N-[5-[(4-fluorophenyl)methyl]thiazol-2-yl]-4-methyl-tetrahydropyran-4-carboxamide]  398 nM
30. CC1(C(=O)Nc2ncc(Cc3ccccc3F)s2)CCOCC1 [Compound E004]  398 nM
31. O=C(CN1CCCCC1)Nc1ncc(Cc2ccccc2F)s1 [Compound E013]  398 nM
32. Cc1cccc(Cc2cnc(NC(=O)C3(C)CCOCC3)s2)c1 [Compound E024]  398 nM
33. CN(C)C(C)(C)C(=O)Nc1ncc(Cc2ccccc2F)s1 [Compound E011]  501 nM
34. CC(C)(C#N)C(=O)Nc1ncc(Cc2ccccc2F)s1 [Compound E012]  631 nM
35. CC1(C(=O)Nc2ncc(Cc3ccccc3F)s2)CCOC1 (stereo not drawn) [Compound E014]  631 nM
36. O=C(Nc1ncc(Cc2cccc(F)c2)s1)C1(CO)CC1 [Compound E029]  631 nM
37. Cc1nc(NC(=O)C(C)C)sc1Cc1ccccc1 [Compound E040]  631 nM
38. CC(C)(CO)C(=O)Nc1ncc(Cc2ccccc2F)s1 [Compound E010]  1260 nM
39. CC(C(=O)Nc1ncc(Cc2ccccc2F)s1)N1CCCC1 (stereo not drawn) [Compound E017]  1260 nM
40. O=C(Nc1ncc(Cc2cccc(F)c2)s1)C1CCCC1O (stereo not drawn) [Compound E038]  1580 nM
41. C[C@@H](CO)C(=O)Nc1ncc(Cc2cccc(F)c2)s1 [Compound E031]  2000 nM
42. O=C(Nc1ncc(Cc2cccc(F)c2)s1)C1(O)CC1 [Compound E026]  2510 nM
43. CC(C)(C)OC(=O)N1CCC[C@@H]1C(=O)Nc1ncc(Cc2cccc(F)c2)s1 [Compound E035, tert-butyl (2R)-2-[[5-[(3-fluorophenyl)methyl]thiazol-2-yl]carbamoyl]pyrrolidine-1-carboxylate]  3160 nM
44. CC(C)(O)C(=O)Nc1ncc(Cc2ccccc2F)s1 [Compound E005]  3980 nM
45. O=C(Nc1ncc(Cc2ccccc2F)s1)C1CCOC1 (stereo not drawn) [Compound E008]  3980 nM
46. CC1(C(=O)Nc2ncc(Cc3ccccc3F)s2)COC1 [Compound E016]  3980 nM
47. CC(F)(F)C(=O)Nc1ncc(Cc2ccccc2F)s1 [Compound E022]  5010 nM
48. N#CC1(C(=O)Nc2ncc(Cc3ccccc3F)s2)CCOCC1 [Compound E028]  6310 nM
49. CC(C)C(=O)Nc1nc(-c2ccccc2)cs1 [Compound E039]  6310 nM
50. CC(C)C(=O)Nc1ncc(Cc2cccc(C(F)(F)F)c2)s1 [Compound E002]  7940 nM
51. CC1(C(=O)Nc2ncc(Cc3cccc(F)c3)s2)CCC(=O)N1 (stereo not drawn) [Compound E032]  7940 nM
